According to ChEMBL document CHEMBL1150943, “Three dolabellanes and a macrolide from the sponge Dysidea sp. from Palau” (J Nat Prod, 1998):
pIC50: −log10 of the molar value.

How the values were obtained:
A2780 = experiment: Cytotoxicity against human A2780 cells after 72 hrs by MTS assay; format: functional, cell-based; conditions: A2780, 72 h
HCT-116 = experiment: Cytotoxicity against human HCT116 cells after 72 hrs by MTS assay; format: functional, cell-based; conditions: HCT-116, 72 h

Compound | pIC50 (A2780) | pIC50 (HCT-116)
CC(=O)O[C@H]1C/C(C)=C/C(=O)C[C@@H](C)/C=C/[C@@]2(C)CC[C@@H](C(C)(C)OC(C)=O)[C@H]12 (relative stereo) | 4.38 | 4.10
CC(=O)O[C@H]1/C=C(/C)CC(=O)C[C@@H](C)/C=C/[C@@]2(C)CC[C@@H](C(C)(C)OC(C)=O)[C@H]12 (relative stereo) | 4.60 | 
C=C(CCCC(O)CC(C)O)C[C@H]1CC(=C)C[C@@H](O)C/C(C)=C/[C@H](O)CCCC(=O)O1 (stereo not given in full) [ARENOLIDE] | 5.01 | 4.68
